Results: patent US8350097B2, “Therapeutic compounds” (priority 2007, dated 2013)
Entries after “also recorded” stand apart in the source; their conditions may differ. Read-outs that look alike come from different tables or passages of the source. Marks after values point to notes of the source that are not given here.

Assays:
Beagle dogs [1] = assay: Hemodynamic effects (blood pressure) in beagle dogs, bolus IV; assay type: in vivo, dog; conditions: for MAP % change from baseline: 4 min after bolus IV
Experimental: The study was a crossover design. […] The MTD was defined as the dose that reduced mean arterial blood pressure (MAP) by 50% or to less than 50 millimeters of mercury (mmHg or mm Hg). All animals received supplemental oxygen and, if needed, ventilatory support after 4 min of apnea.
Hemodynamic data, such as mean arterial pressure (MAP), were recorded at baseline, 1, 2, 4, 8, 15, 20 and 30 min. Compound 1 was administered at 5, 10, 15 and 30 mg/kg to 6, 4, 3 and 3 dogs respectively. […] Data were analyzed with a 2-way ANOVA followed by t-test with Bonferroni correction for multiple comparisons.

Beagle dogs [2] = tested on: Beagle dogs
[3] = Anesthetic effects in rats, bolus IV (LORR model of general anesthesia); assay type: in vivo, rat; conditions: male, Sprague-Dawley, rat, in vivo, read-out: MTD (maximum tolerated dose)
Experimental: (§1) Also measured was minimum dose to achieve LORR and maximum tolerated dose (MTD).
(§2) The ranges of doses studied were 2, 3, 4, 7, 14 and 21 mg/kg for Compound 1 and 3.5, 4.0, 7.0 and 14.0 mg/kg for […].

male Sprague-Dawley rats = assay: as above; assay type: in vivo, rat; conditions: for deaths / production of LORR by dose: 6 rats per dose group; for deaths: dose as stated
Experimental: as §1, §2

[4] = tested on: commercial farm-bred swine; assay type: in vivo, pig; conditions: pigs, 0.6 mg per kg per min
Experimental: Experiments were performed on commercial farm-bred swine of either sex (mean weight 33.6 kg). Anesthesia was induced with isoflurane. Intravascular access was obtained from an ear vein. Each pig was intubated and mechanically ventilated. Tissue oxygenation was monitored using continuous pulse oximetry placed on the tongue. Ventilation was monitored using an inspired/expired gas analyzer that measured oxygen, carbon dioxide, and potent inhalation agent concentrations. Ventilator settings were adjusted as needed to maintain steady state.
ECG was monitored throughout the study. Arterial blood pressure was monitored through the cannulated left femoral artery. MAP, systolic and diastolic arterial pressures and heart rate were collected every 5 seconds. An internal jugular vein was cannulated with a pulmonary artery catheter for thermodilution estimates of cardiac output and blood temperature. Body temperature was maintained at 37° C.

[5] = Aqueous phase concentration in lipid emulsion (pain on injection surrogate), ultrafiltration + LC/MS/MS; assay type: physicochemical; conditions: for reduction in aqueous phase concentration compared to propofol in identical formulations: 1% lipid emulsions formulated per Example 5; for aqueous phase concentration: aqueous phase of 1% lipid emulsion separated by ultrafiltration
Experimental: The concentration of Compound 1 in the aqueous phase (aqueous phase concentration) of a lipid emulsion formulation was determined.
A one percent (1%) Compound 1 formulation was formulated in accordance with Example 5, Compound 1 being prepared as described in Example 2.

Male descented ferrets [6] = assay: Anti-emetic activity in ferrets (morphine sulfate-induced emesis); assay type: in vivo, ferret; conditions: 6 ferrets, 45 min observation
Experimental: (§3) Male descented ferrets weighing 1.0-1.5 kg with vascular access ports in the jugular vein were housed on a 12/12-hour light/dark cycle under controlled temperature, with food and water provided ad libitum. On each study day, food was presented to ferrets one hour prior to dosing. Immediately prior to dosing, food and water were removed. A 1% Compound 1 formulation, prepared as described in Example 2 and formulated in accordance with Example 5, or […] was administered by IV infusion to the ferrets; see Wynn R L et al, 1993, Eur J Pharmacol 241, 42 re […] administration in ferrets. After administration of Compound 1 or […], animals were placed in clean, transparent cages (with lids) and left unrestrained for a 45-min observation period by an observer blinded to the specific treatment administered.
(§4) Episodes of retching and/or vomiting were considered separate episodes when the interval between retches and/or vomits exceeded 5 sec.
After termination of the infusion, 0.5 mg/kg morphine sulfate was administered subcutaneously and the ferrets were monitored for 45 min as described above. Six additional ferrets were administered subcutaneously 0.5 mg/kg morphine sulfate only.

[7] = Pharmacokinetic study, IV infusion in domestic pigs; assay type: in vivo
Experimental: A 0.5% Compound 1 formulation, prepared as described in Example 2 and formulated in accordance with Example 6, was administered to 6 pigs via a 20-min intravenous (IV) infusion at 0.6 mg/kg/min (12 mg/kg total dose).

[8] = tested on: commercial farm-bred swine; assay: Hemodynamic effects, blood gas and serum chemistry in anesthetized ventilated pigs, IV infusion; assay type: in vivo, pig
Experimental: Anesthesia was induced with isoflurane. Intravascular access was obtained from an ear vein. Each pig was intubated and mechanically ventilated.
ECG was monitored throughout the study. […] Body temperature was maintained at 37° C.
Arterial blood gas samples from pigs infused with Compound 1 were taken and analyzed for blood gas and serum chemistry values.

Male descented ferrets [9] = assay: Pro-emetic activity in ferrets; conditions: 6 ferrets, IV infusion 15 min at 1 mg/kg/min, 45 min observation
Experimental: as §3, §4

pig = assay: Test B. Anesthetized Pig Model (hemodynamic profile); assay type: in vivo; conditions: equi-anesthetic doses (3 mg/kg vs propofol 6 mg/kg), FIGS. 1 and 2
Experimental: The hemodynamic profile of a compound of the invention can be determined using standard pharmacological models which are well known to the art. The hemodynamic and anesthetic profiles of a compound of the invention were evaluated simultaneously using an anesthetized pig model (as described in Test B below). In this assay, the hemodynamic profile of a compound of the invention was compared to that of propofol at equi-anesthetic doses.
Test B. Anesthetized Pig Model
The anesthetic induction will be performed using a modification of a technique described by Ko et al (Ko et al., Lab Anim Sci 1993; 43: 476-80) for swine (Telazol, xylazine and ketamine given as an intramuscular injection). […]
A pilot dose-finding study will be performed to establish an appropriate infusion dose for each agent. […] Blood samples (1 mL each) may be collected at pre-dose and at 2, 4, 6, 8, 10, 12, 15, 20, 22, […], 25, 35, 50, 65 and 80 minutes after the start of the first infusion for pharmacokinetic purposes; EEG will be recorded continuously as the primary pharmacodynamic endpoint. […]
The EEG signal will be fed to a BIS analyzer (Aspect Medical) which provides continuous output of processed EEG data. The output consists of a “BIS” number calculated by a proprietary algorithm that ranges between 100 (fully conscious) and 0 (isoelectric) and indicates brain activity. […]

Male Sprague Dawley rats = assay: Test A. Loss of Righting Reflex Assay; assay type: in vivo, rat; conditions: for duration of anesthesia (loss of the Righting Reflex): 7 mg/kg bolus in tail vein, 1% formulation
Experimental: The ability of a compound of the invention to produce a sedative or hypnotic effect can be determined using standard pharmacological models which are well known to the art.
Test A. Loss of Righting Reflex Assay
Male Sprague Dawley rats were restrained in a holder and injection test compounds were injected in the tail vein (based on mg test compound/kg body weight). Following administration, the rats were placed in dorsal recumbent position on a heating blanket. The time to onset for the loss of the Righting Reflex (RR-ability of rat to right itself) was recorded, as was the duration of the loss of the RR.

[10] = 15 min IV infusion at 1 mg/kg/min then 0.5 mg/kg morphine sulfate s.c.
[11] = morphine sulfate 0.5 mg/kg subcutaneously alone

Row | Compound | MAP % change from baseline (Beagle dogs [1]; 10 mg/kg) | MAP % change from baseline (Beagle dogs [1]; 15 mg/kg) | MAP % change from baseline (Beagle dogs [1]; 30 mg/kg) | MTD [3] | HD50 (dose required to cause 50% of the rats to lose righting reflex) (male Sprague-Dawley rats) | HD7 min (dose required to produce 7 minutes of anesthesia) (male Sprague-Dawley rats) | TI (therapeutic index; ratio of MTD to HD7 min) (male Sprague-Dawley rats) | deaths (male Sprague-Dawley rats) | aqueous phase concentration [5] | duration of anesthesia (sleep time) (Beagle dogs [2]; dog, in vivo, iv, 5 mg/kg) | duration of anesthesia (sleep time) (Beagle dogs [2]; dog, in vivo, iv, 10 mg/kg) | duration of anesthesia (sleep time) (Beagle dogs [2]; dog, in vivo, iv, 15 mg/kg) | duration of anesthesia (sleep time) (Beagle dogs [2]; dog, in vivo, iv, 30 mg/kg) | production of LORR by dose (male Sprague-Dawley rats) | duration of anesthesia (loss of the Righting Reflex) (Male Sprague Dawley rats) | also measured
1 | CC[C@H](C)c1cccc(C(C)C)c1O [(S)-(+)-2-sec-butyl-6-isopropylphenol] | +3% | +1% | −33% | 21 mg/kg | 5 mg/kg | 6.7 mg/kg | 3.1 | One of six rats died when administered 28 mg/kg |  |  |  |  |  |  |  | duration of anesthesia (sleep time) (Beagle dogs [2]; dogs, bolus IV, 5 mg/kg): 12 min; duration of anesthesia (sleep time) (Beagle dogs [2]; dogs, bolus IV, 10 mg/kg): 33 min; duration of anesthesia (sleep time) (Beagle dogs [2]; dogs, bolus IV, 15 mg/kg): 50 min; duration of anesthesia (sleep time) (Beagle dogs [2]; dogs, bolus IV, 30 mg/kg): 56 min
2 | CC[C@@H](C)c1cccc(C(C)C)c1O [Compound 1, (R)-(−)-2-sec-butyl-6-isopropylphenol] | 5% | −19% | −41% | 14 mg/kg | 2.3 mg/kg | 3.4 mg/kg | 4.1 | Three rats died when administered 21 mg/kg | 1.78 ± 0.17 µg/mL | 23 min | 33 min | 40 min | 71 min | LORR at all doses of at least 3 mg/kg | 14.9 min | IV infusion time producing maximal suppression of BIS (<10) [4]: 17.3 ± 1.9 min; reduction in aqueous phase concentration compared to propofol in DIPRIVAN ([5]; 1% Compound 1 formulation vs DIPRIVAN): 57%; reduction in aqueous phase concentration compared to propofol in identical formulations [5]: 72%; reduction in aqueous phase concentration compared to propofol in identical formulations ([5]; listed as (R)-(−)-2-sec-butyl-6-isopropylphenol): more than 70%; retches in the presence of morphine (Male descented ferrets [6]; [10]): 47; vomits in the presence of morphine (Male descented ferrets [6]; [10]): 1; anesthetic depth by Cumulative sedation scores (Beagle dogs [2]; dog, in vivo): approximately equipotent anesthetic depth; duration of anesthesia (sleep time) compared with propofol (Beagle dogs [2]; dog, in vivo, iv): similar; effect on BIS compared with propofol (Beagle dogs [2]; dog, in vivo, iv): greater effect on BIS at doses of at least 15 mg/kg; metabolic pathway [7]: glucuronidation in the 1-position with the 4-position being subject to hydroxylation followed by glucuronide and sulfate conjugation; Clearance ([7]; IV infusion): exceeded estimated hepatic blood flow; metabolic alterations (arterial blood gas and serum chemistry) ([8]; IV infusion 0.6 mg/kg/min): did not produce any significant metabolic alterations; episodes of vomiting or retching, drug administered alone (Male descented ferrets [9]): did not produce any episodes of vomiting or retching; hemodynamic profile vs. propofol (pig): improved hemodynamic profile; hypnotic potency compared to propofol (Male Sprague Dawley rats; Test A): more potent than propofol
3 | CN1CC[C@]23c4c5ccc(O)c4O[C@H]2[C@@H](O)C=C[C@H]3[C@H]1C5.O=S(=O)(O)O [Morphine sulfate, reference compound] |  |  |  |  |  |  |  |  |  |  |  |  |  |  |  | episodes of vomiting (Male descented ferrets [6]; [11]): 15; retches (Male descented ferrets [6]; [11]): 157
4 | CC(C)c1cccc(C(C)C)c1O [propofol, 2,6-diisopropylphenol, reference compound] | −22% | −32% | −66%* | < 14 mg/kg |  |  | <2 |  | 6.28 ± 0.41 µg/mL | 13 min | 28 min | 43 min | 69 min | no LORR in 4 of 6 rats tested at 3.5 mg/kg | 7.1 min | effect on MAP, comparison (Beagle dogs [1]; bolus IV): significantly greater effect on MAP than does Compound 1; also recorded: significantly greater effect on MAP than did (S)-(+)-2-sec-butyl-6-isopropylphenol; dogs reaching the MTD (MAP reduced by 50% or to less than 50 mmHg) (Beagle dogs [2]; dog, in vivo, iv, 15 mg/kg): Two of 3 dogs; decrease in MAP, comparison ([8]; IV infusion, Compound 1 0.6 mg/kg/min vs propofol 0.750 mg/kg/min, FIG. 3): significantly larger decrease in MAP than Compound 1; lowest HR measured, comparison ([8]; IV infusion, Compound 1 0.6 mg/kg/min vs propofol 0.750 mg/kg/min, FIG. 4): significantly lower than the lowest HR measured for Compound 1
